Patent US8663604B2, “Method for measuring neurotransmitters in vivo” (The Regents of the University of California, priority 2007, dated 2014)

Columns and labels:
[1] = target: T1, M1 muscarinic acetylcholine receptor (Rattus norvegicus, UniProt P08482); test: In vitro two-photon FRET response of M1-TN-XXL neurofluocytes to bath-applied neurotransmitters; assay type: cell-based; details: ACh applied at 10 nM to 10 μM via bath perfusion
T1 construct: expressed in transfected cells
T1 sequence (P08482 1-460): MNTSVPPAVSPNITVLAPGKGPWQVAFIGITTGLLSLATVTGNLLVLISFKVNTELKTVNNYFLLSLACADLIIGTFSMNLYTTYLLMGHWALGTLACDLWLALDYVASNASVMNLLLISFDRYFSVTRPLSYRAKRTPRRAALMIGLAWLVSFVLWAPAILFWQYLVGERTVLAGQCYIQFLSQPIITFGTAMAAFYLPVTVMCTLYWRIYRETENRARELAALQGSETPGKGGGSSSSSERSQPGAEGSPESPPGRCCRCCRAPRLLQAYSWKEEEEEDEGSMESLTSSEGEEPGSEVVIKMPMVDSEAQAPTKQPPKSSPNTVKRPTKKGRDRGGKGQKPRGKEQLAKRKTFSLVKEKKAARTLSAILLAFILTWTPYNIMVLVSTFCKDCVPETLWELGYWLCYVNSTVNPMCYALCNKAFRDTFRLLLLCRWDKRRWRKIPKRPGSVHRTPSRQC
Source text: The state of each cell is imaged with in vivo two-photon laser scanning microscopy (TPLSM). In another implementation, HEK293 cells were transfected with the Ca^2+-coupled M1 muscarinic receptor and the genetically encoded FRET-based Ca^2+ biosensor TN-XXL. In the presence of acetylcholine (ACh), a M1-mediated Ca^2+ increase is transduced by TN-XXL into a FRET-based optical signal.
ACh-neurofluocytes expressing a muscarinic receptor and fluorescent protein. […] These cells are referred to here as M1-TN-XXL neuro-fluocytes. HEK-293 cells were transduced with lentiviruses modified to carry the M1 muscarinic acetylcholine receptor or the TN-XXL FRET intracellular calcium indicator as transgenes. Clonal cells were selected subsequently based on the highest response to acetylcholine in vitro.
M1-TN-XXL neurofluocytes. ACh-neurofluocytes were tested in vitro for their sensitivity to acetylcholine. […] FIG. 2a provides a diagram of the detection mechanism.

[2] = target: T2, ionotropic receptor 5-HT3A (Rattus norvegicus, UniProt P35563); test: In vitro response of HEK cells transiently cotransfected with 5-HT3A and TN-XXL to bath-applied serotonin; assay type: cell-based; details: 3-10 μm serotonin applied in the bath
T2 construct: expressed in transfected cells; host or cells: HEK cells, transient co-transfection with TN-XXL
T2 sequence (P35563 24-483): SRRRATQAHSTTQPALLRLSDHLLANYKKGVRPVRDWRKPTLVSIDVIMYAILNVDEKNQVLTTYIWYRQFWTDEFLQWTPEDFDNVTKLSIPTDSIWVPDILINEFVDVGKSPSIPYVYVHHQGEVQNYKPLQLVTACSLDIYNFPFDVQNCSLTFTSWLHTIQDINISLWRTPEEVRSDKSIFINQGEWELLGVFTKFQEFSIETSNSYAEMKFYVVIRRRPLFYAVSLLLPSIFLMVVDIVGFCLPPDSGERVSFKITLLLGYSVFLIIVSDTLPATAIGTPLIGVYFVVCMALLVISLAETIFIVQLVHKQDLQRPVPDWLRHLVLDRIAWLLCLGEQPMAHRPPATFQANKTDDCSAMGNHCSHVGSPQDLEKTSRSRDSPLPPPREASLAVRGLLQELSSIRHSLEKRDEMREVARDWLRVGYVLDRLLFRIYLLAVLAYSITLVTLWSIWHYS

muscarinic receptors = test: Response of implanted neurofluocytes to NBM stimulation after intracerebral injection of antagonist
Description: Urethane-anesthetized rats were injected with HEK293 cells loaded with Calcium Green in the cerebral cortex and a bipolar stimulating electrode was implanted in NBM together with ECoG-recording electrodes to detect desynchronization in cerebral cortex upon NBM stimulation.
A similar set of experiments was conducted with stably transfected M1-TN-XXL neurofluocytes.

Structure (SMILES) | FRET response / sensitivity of ACh-neurofluocytes to neurotransmitter [1] | response of 5-HT3A/TN-XXL cells [2] | effect on responses of neurofluocytes to NBM stimulation (muscarinic receptors)
CN1[C@@H]2CC[C@H]1C[C@@H](OC(=O)C(CO)c1ccccc1)C2 (stereo partly shown) [atropine] | – | – | abolished
NC[C@H](O)c1ccc(O)c(O)c1 [norepinephrine] | insensitive | – | –
NCCCC(=O)O [GABA] | insensitive | – | –
N[C@@H](CCC(=O)O)C(=O)O [glutamate] | insensitive | – | –

Continued, in another order:

FRET response / sensitivity of ACh-neurofluocytes to neurotransmitter [1] | response of 5-HT3A/TN-XXL cells [2] | Structure (SMILES) | effect on responses of neurofluocytes to NBM stimulation (muscarinic receptors)
insensitive | responded robustly | NCCc1c[nH]c2ccc(O)cc12 [serotonin] | –
insensitive | – | NCCc1ccc(O)c(O)c1 [dopamine] | –
